The record followed here is ChEMBL document CHEMBL1156293, “Synthesis of a novel tricyclic 1,2,3,4,4a,5,6,10b-octahydro-1,10-phenanthroline ring system and CXCR4 antagonists with potent activity against HIV-1” (Bioorg Med Chem Lett, 2010).

pIC50: −log10 of the molar value.

The subject of series [1] is Human immunodeficiency virus 1. Briefly: Antiviral activity against HIV1 3B in human HOS cells expressing human […]/pHIV-LTR-luciferase assessed as blockade of viral infection into cells. In kind it is functional, organism-based. As to conditions: Human immunodeficiency virus 1, 3B.
The nature of series [2]: Cytotoxicity against human HOS cells. In kind it is cell-based.
A short description of series [3]: Half life in rat at 3 mg/kg, po. The class given is ADME, organism-based. Set-up: dose 3 mg/kg, route oral. As to conditions: in vivo.
The test system of series [4] is Canis familiaris. Briefly: Dose normalized AUC in dog at 3 mg/kg, po. In kind it is ADME, organism-based, Canis lupus familiaris. Set-up: dose 3 mg/kg, route oral. As to conditions: in vivo.
Series [5] can be described thus: Half life in dog at 3 mg/kg, po. Set-up: dose 3 mg/kg, route oral. The class given is ADME, organism-based, Canis lupus familiaris. As to conditions: in vivo.
Series [6] has as its system Rattus norvegicus. In words: Dose normalized AUC in rat at 3 mg/kg, po. The class given is ADME, organism-based. Also on record: dose 3 mg/kg, route oral. The conditions noted are these: in vivo.
A short description of series [7]: Volume of distribution at steady state in dog at 1 mg/kg, iv. In kind it is ADME, organism-based, Canis lupus familiaris. Set-up: dose 1 mg/kg, route intravenous. The conditions noted are these: in vivo, read-out: Vdss.
A short description of series [8]: Volume of distribution at steady state in rat at 1 mg/kg, iv. The class given is ADME, organism-based. Set-up: dose 1 mg/kg, route intravenous. As to conditions: in vivo, read-out: Vdss.

Regarding `CN1CCN(c2cccc3nc(CN4CCC[C@@H]5CCc6cccnc6[C@H]54)cn23)CC1`, in series [1], the pIC50 (in general, the IC50 on a negative log10 scale, so that one unit is a factor of ten) was 7.30. Also, half-maximal cytotoxicity in series [2] (CC50) was put at 9.9 µM.
The corresponding values for `CN1CCC(N(C)c2cccc3nc(CN4CCC[C@H]5CCc6cccnc6[C@H]54)cn23)C1` (some centres undefined) are 8.05 and 1.57 µM.
For `CN(C)CCCn1c(CN2CCC[C@H]3CCc4cccnc4[C@@H]32)nc2ccccc21`, the pIC50 in series [1] was 6.48. Moreover, half-maximal cytotoxicity in series [2] (CC50) was put at 3.7 µM.
Regarding `CN1CCC(N(C)c2cccc3nc(CN4CCC[C@H]5CCc6cccnc6[C@H]54)cn23)CC1`, the pIC50 in series [1] is 7.42. The midpoint of cytotoxicity in series [2], the CC50, lay at 1.3 µM.
For `c1cnc2c(c1)CC[C@@H]1CCCN(Cc3cn4c(N5CCN6CCCC6C5)cccc4n3)[C@H]21` (some centres undefined), in series [1], the pIC50 is 8.70. Also, the CC50 (in general, the concentration that lowers cell viability or growth by half) in series [2] is 2.98 µM.
For `CN1CCN(c2cccc3nc(CN4CCC[C@@H]5CCc6cccnc6[C@@H]54)cn23)CC1`, the pIC50 in series [1] was 7.00. The compound further came in with a CC50 in series [2] of 8.5 µM.
Consider `c1cnc2c(c1)CC[C@@H]1CCCN(Cc3cn4c(N5CCOCC5)cccc4n3)[C@H]21`, for which the pIC50 in series [1] is 5.92. For the same compound, in series [2], the CC50 was 6.6 µM.
For the compound `CN(C)CCN(C)c1cccc2nc(CN3CCC[C@H]4CCc5cccnc5[C@H]43)cn12`, the pIC50 in series [1] is 8.30. This compound also had a CC50 in series [2] of 1.45 µM.
As to `CN(C)C1CCN(c2cccc3nc(CN4CCC[C@H]5CCc6cccnc6[C@H]54)cn23)CC1`, in series [1], the pIC50 is 7.82. Further, the midpoint of cytotoxicity in series [2], the CC50, lay at 3.85 µM.
The corresponding values for `CN(C)CCCn1c(CN2CCC[C@H]3CCc4cccnc4[C@H]32)nc2ccccc21` are 7.46 and 6 µM.
In the case of `CN(C)CCCn1c(CN2CCC[C@@H]3CCc4cccnc4[C@@H]32)nc2ccccc21`, the pIC50 in series [1] is 6.28. For the same compound, the midpoint of cytotoxicity in series [2], the CC50, lay at 4.2 µM.
`CN(C)CCCn1c(CN2CCC[C@@H]3CCc4cccnc4[C@H]32)nc2ccccc21`: in series [1], the pIC50 was 6.85. Besides, in series [2], the CC50 stood at 3.5 µM.
The matching figures for `CN(C)[C@@H]1CCN(c2cccc3nc(CN4CCC[C@H]5CCc6cccnc6[C@H]54)cn23)C1`: 7.68 and 1.6 µM.
Take `CN1CCN(c2cccc3nc(CN(C)[C@H]4CCCc5cccnc54)cn23)CC1`: the figures for the half-life in series [3] and in series [5] were 4.9 h and 8.5 h, respectively. Besides, the AUC (as a rule, the area under the concentration-time curve, a measure of exposure) in series [4] is 160 ng·h/mL/(mg/kg); in series [6], 100 ng·h/mL/(mg/kg). For the same compound, the figures for the Vd in series [7] and in series [8] were 7.6 L/kg and 5.5 L/kg, respectively.
In the case of `CN1CCN(c2cccc3nc(CN4CCCC5CCc6cccnc6C54)cn23)CC1` (racemic), in series [1], the negative logarithm of the IC50 (pIC50) was 7.49. This compound yielded a CC50 in series [2] of 9.6 µM.
